How the values were obtained:
[1] = test system: CD8^+ T-cells in MMTV-PyMT tumors; assay: Flow cytometry of the TME of MMTV-PyMT tumors after 36 h treatment; format: in vivo, mouse; conditions: single-agent therapy
Procedure: At 36 h post treatment initiation of treatment mice were sacrificed and tumors were harvested and analyzed. (A) Schematic representing the dosing strategy. (B) The fold change of tumor growth over 36 h post initiation of treatment. (C-G) Tumors were enzyme-digested to release single cells which were analyzed for their live (7AAD^-) stromal cell composition using flow cytometry (n=5 tumors per group) (C) and CD8^+ T-cells (D). Gating strategy (left panel) and quantitation of CD8^+ T-cell subsets based on CD62L and CD44 expressions (right panel; TCM; T central memory cells, TEM; T effector memory cells, Teff; T effectors cells) (E), and the ability of the tumoral CD8^+ T-cells to secrete IFNγ post ex vivo exposure to PMA/ionomycin treatment (F). […] Scale bar is 100 µm and white arrows indicate infiltrating CD8^+ T-cells. […] Image in panel (A) was created using BioRender. Bar charts show the mean, error bars SD, and the dots show individual data points from individual tumors and mice. Gemc.; gemcitabine. * P<0.05, ** P<0.01, *** P<0.001.
MN-MCA1 sarcoma cells were orthotopically implanted into syngeneic C57Bl/6 mice for tumors. A total of 2.5 x 10^5 cells in 100 μL RPMI were injected subcutaneously into female mice. […] When tumors became palpable, volumes were measured every 2-4 days using digital caliper measurements of the long (L) and short (S) dimensions of the tumor. […]

[2] = design: method as in PMID 19581737, PMID 22993376; conditions: cited from earlier work
[3] = design: method as in PMID 2714739; conditions: cited from earlier work

| Compound | abundance of CD8^+ T-cells in the TME [1] | patients with pulmonary inflammation [2] | oral bioavailability [3] | serum half-life [3] |
| --- | --- | --- | --- | --- |
| Nc1ccn([C@@H]2O[C@H](CO)[C@@H](O)C2(F)F)c(=O)n1 [gemcitabine] | increase in the abundance of CD8^+ T-cells | approximately 23% |  |  |
| Sn (IV) mesoporphyrin IX dichloride [SnMP] |  |  | not orally bioavailable | short |
